Data on twelve molecules can be found in patent publication US11370794B2, “Toll-like receptor antagonist compounds and methods of use” (Dynavax Technologies Corporation, priority 2016, dated 2022).

One assay deals with T1, human TLR9 (Homo sapiens, UniProt Q9NR96).
T1 construct: endogenous in cells; host or cells: primary human B cells (CD19 microbeads) from buffy coats of healthy donors
T1 sequence (Q9NR96 26-1032): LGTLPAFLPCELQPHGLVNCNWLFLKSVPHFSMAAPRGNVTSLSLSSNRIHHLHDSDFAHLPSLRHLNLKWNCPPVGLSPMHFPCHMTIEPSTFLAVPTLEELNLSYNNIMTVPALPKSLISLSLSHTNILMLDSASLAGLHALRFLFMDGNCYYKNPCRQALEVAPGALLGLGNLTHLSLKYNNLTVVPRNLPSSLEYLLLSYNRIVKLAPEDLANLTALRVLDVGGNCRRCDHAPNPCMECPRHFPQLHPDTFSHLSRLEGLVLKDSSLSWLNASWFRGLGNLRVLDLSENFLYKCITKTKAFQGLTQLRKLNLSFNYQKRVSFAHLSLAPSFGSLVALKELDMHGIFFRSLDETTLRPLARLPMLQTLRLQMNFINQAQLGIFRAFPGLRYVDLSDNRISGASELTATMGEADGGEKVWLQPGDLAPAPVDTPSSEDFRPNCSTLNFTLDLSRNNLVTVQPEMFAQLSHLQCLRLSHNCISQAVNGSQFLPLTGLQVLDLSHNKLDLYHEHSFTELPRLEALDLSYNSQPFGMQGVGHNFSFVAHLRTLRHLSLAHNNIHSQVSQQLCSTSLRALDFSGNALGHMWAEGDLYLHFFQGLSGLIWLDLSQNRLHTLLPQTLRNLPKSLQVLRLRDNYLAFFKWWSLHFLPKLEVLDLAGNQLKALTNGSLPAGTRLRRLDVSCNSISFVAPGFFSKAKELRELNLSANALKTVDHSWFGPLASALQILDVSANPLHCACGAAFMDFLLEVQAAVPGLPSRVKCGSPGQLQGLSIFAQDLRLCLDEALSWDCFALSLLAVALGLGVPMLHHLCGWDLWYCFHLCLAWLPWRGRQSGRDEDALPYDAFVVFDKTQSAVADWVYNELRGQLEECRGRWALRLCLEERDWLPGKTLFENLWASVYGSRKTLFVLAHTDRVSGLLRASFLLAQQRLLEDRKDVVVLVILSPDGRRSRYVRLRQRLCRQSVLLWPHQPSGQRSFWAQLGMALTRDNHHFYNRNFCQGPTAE
Kind of assay: Inhibition of human TLR9 in human B cells (IL-6 ELISA). It is filed as cell-based. Conditions: for IC50: human B cells, agonist 1018 ISS 1 μM, IL-6 readout, 48 hours, range about 0.01 to 10 μM, read-out: Human TLR9 IC50; for inhibits TLR9-dependent responses (in words): summary statement of the description. The protocol:
Example B3—Inhibition of Human TLR9 in Human B Cells
When placed in cell culture, engagement of TLR9 with an agonist leads to expression and release of cytokines into the media.
Buffy coats from anonymized, healthy human donors. CD19 microbeads (Miltenyi Cat. No. 130-050-301). TLR9 agonist, 1018 ISS, CpG-containing DNA oligonucleotide. Human interleukin (IL)-6 ELISA kit (Mabtech Cat. No. 3460-1H-20).
Following isolation of […] from buffy coats, human B cells were plated into 96 well plates at approximately 300,000 cells per well. Test compounds were serially diluted and added to the plates. Test compounds were typically assayed using a concentration range from about 0.01 μM to about 10 μM. Certain test compounds were further assayed in an expanded dilution series using a compound concentration range from about 0.001 μM to about 30 μM. Immediately after adding test compounds, the TLR9 agonist (1018 ISS, CpG-containing DNA oligonucleotide) was added to a final concentration of 1 μM. Cells were incubated for 48 hours at 37° C. A portion of the media supernatant was analyzed for the presence of IL-6 using ELISA kits. The amount of IL-6 produced is a reflection of the amount of TLR9-dependent receptor activity. The IC50 values (the concentration at which 50% of the TLR9-dependent receptor activity is reduced) were calculated based upon the TLR9-dependent receptor activity over a range of different test compound concentrations.
(In general: In an ELISA, binding on a coated surface is turned into a signal by an enzyme label.)

The target in a further assay is T2, human TLR8 (Homo sapiens, UniProt Q9NR97).
T2 construct: endogenous in cells; host or cells: primary human monocytes (CD14 microbeads) from buffy coats of healthy donors
T2 sequence (Q9NR97 27-1041): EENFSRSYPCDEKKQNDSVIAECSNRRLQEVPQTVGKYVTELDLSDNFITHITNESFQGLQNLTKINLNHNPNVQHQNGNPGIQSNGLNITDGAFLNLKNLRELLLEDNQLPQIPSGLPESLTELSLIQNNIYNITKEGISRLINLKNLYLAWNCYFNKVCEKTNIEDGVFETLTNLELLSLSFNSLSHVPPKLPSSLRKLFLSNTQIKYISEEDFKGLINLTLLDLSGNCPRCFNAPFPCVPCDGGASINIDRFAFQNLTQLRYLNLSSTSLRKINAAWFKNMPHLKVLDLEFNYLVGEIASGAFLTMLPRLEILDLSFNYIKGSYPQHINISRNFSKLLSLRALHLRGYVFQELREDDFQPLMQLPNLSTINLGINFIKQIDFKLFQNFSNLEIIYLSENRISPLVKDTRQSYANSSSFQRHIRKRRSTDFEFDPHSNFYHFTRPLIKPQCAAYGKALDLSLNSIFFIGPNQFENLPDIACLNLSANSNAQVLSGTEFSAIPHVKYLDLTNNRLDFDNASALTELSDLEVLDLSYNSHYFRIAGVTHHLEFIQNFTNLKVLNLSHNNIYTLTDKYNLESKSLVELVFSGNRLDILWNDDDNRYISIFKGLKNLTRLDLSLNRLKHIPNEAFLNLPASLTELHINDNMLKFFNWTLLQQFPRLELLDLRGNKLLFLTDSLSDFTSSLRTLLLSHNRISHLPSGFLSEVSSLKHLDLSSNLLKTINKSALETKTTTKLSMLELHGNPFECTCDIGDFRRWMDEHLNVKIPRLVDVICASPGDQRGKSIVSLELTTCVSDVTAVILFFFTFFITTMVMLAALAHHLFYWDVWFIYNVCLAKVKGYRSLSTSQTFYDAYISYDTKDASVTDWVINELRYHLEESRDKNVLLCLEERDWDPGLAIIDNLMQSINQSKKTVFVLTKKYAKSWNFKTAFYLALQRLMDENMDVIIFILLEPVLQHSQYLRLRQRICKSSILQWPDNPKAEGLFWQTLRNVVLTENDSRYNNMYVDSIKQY
Kind of assay: Inhibition of human TLR8 in human monocytes (TNF-alpha / IL-1 beta ELISA). It is filed as cell-based. Conditions: human monocytes, agonist ORN8L 100 μg/mL, 24 hours. An excerpt:
Example B2—Inhibition of Human TLR8 in Human Monocytes
When placed in cell culture, engagement of TLR8 with an agonist leads to expression and release of cytokines into the media.
Buffy coats from anonymized, healthy human donors. CD14 microbeads (Milteny Cat. No. 130-050-201). TLR8 agonist, (5′-M2UGCUGCUUGUG-/glycerol/-GUGUUCGUCGUM2-5′ with M2=C6-linker, ORN8L, RNA oligonucleotide (Chem Genes Corp.). Human TNF-alpha ELISA kit (Mabtech Cat. No. 3510-1H-20). Human interleukin (IL)-1 beta ELISA kit (Mabtech Cat. No. 3415-1H-20).
Following isolation of monocytes from buffy coats, human monocytes were plated into 96 well plates at approximately 200,000 cells per well. Test compounds were serially diluted and added to the plates. Immediately after adding test compounds, the TLR8 agonist (ORN8L, RNA oligonucleotide) was added to a final concentration of 100 μg/mL. Cells were incubated for 24 hours at 37° C. A portion of the media supernatant was analyzed for the presence of TNF-alpha and/or IL-1 beta using ELISA kits. The amount of TNF-alpha or IL-1 beta produced is a reflection of the amount of TLR8-dependent receptor activity. The IC50 values (the concentration at which 50% of the TLR8-dependent receptor activity is reduced) were calculated based upon the TLR8-dependent receptor activity over a range of different test compound concentrations.

Setting [1] is: TNF-alpha readout, read-out: Human TLR8 IC50 TNF-a.
The mark [2] stands for this setting: IL-1 beta readout, read-out: Human TLR8 IC50 IL-1b.

Read-outs that look alike come from different tables or passages of the source.

For orientation: IC50 means the point on the concentration scale where inhibition reaches its midpoint.

With `Cc1nnc(N2CCC(C(=O)NCCCN(C)C)CC2)c2nn(C3CCOCC3)c(C)c12` [compound 25, 1-(3,4-dimethyl-2-(tetrahydro-2H-pyran-4-yl)-2H-pyrazolo[3,4-d]pyridazin-7-yl)-N-(3-(dimethylamino)propyl)piperidine-4-carboxamide], the concentration for half-maximal inhibition (IC50) on human TLR9 was over 10000 nM; on human TLR8 (setting [1]) it was at least 20000 nM.
For the molecule `Cc1ccc(-n2nc3c(N4CCC(C(=O)NCCCN5CCOCC5)CC4)nnc(C)c3c2C)cc1` [Compound No. 19x, 1-(3,4-dimethyl-2-(p-tolyl)-2H-pyrazolo[3,4-d]pyridazin-7-yl)-N-(3-morpholinopropyl)piperidine-4-carboxamide], the values for the half-maximal inhibitory concentration (IC50) at human TLR9, at human TLR8 (setting [2]) and at human TLR8 (setting [1]) were 18 nM, 740 nM and 740 nM, respectively. In addition, the “inhibits TLR9-dependent responses (in words)” value against human TLR9 was “inhibit”.
In the case of `Cc1ccc(-n2nc3c(N4CCC(C(=O)NCCCCCCN(C)C)CC4)nnc(C)c3c2C)cc1` [compound 38, 1-(3,4-dimethyl-2-(p-tolyl)-2H-pyrazolo[3,4-d]pyridazin-7-yl)-N-(6-(dimethylamino)hexyl)piperidine-4-carboxamide], the figures for the IC50 on human TLR9 and at human TLR8 (setting [1]) were 40 nM and at least 20000 nM, respectively.
Turning to `Cc1ccc(-n2nc3c(N4CCC(CC(=O)NCCCN(C)C)CC4)nnc(C)c3c2C)cc1` [Compound No. 22, 2-(1-(3,4-dimethyl-2-(p-tolyl)-2H-pyrazolo[3,4-d]pyridazin-7-yl)piperidin-4-yl)-N-(3-(dimethylamino)propyl)acetamide], the half-maximal inhibitory concentration (IC50) on human TLR9 was 31 nM; at human TLR8 (setting [2]), over 10000 nM; on human TLR8 (setting [1]) it was over 10000 nM. Besides, at human TLR9, the “inhibits TLR9-dependent responses (in words)” value is “inhibit”.
With `CCN(CC)CCCNC(=O)C1CCN(c2nnc(C)c3c(C)n(-c4ccc(OC)cc4)nc23)CC1` [9x, N-(3-(diethylamino)propyl)-1-(2-(4-methoxyphenyl)-3,4-dimethyl-2H-pyrazolo[3,4-d]pyridazin-7-yl)piperidine-4-carboxamide], the results for the 50% inhibitory concentration (IC50) at human TLR9, on human TLR8 (setting [2]) and on human TLR8 (setting [1]) were 40 nM, over 10000 nM and over 10000 nM, respectively. Also, the “inhibits TLR9-dependent responses (in words)” value at human TLR9 is on record as “inhibit”.
As to `CCCCN(CC)CCNC(=O)C1CCN(c2nnc(C)c3c(C)n(-c4ccccc4)nc23)CC1` [25x, N-(2-(butyl(ethyl)amino)ethyl)-1-(3,4-dimethyl-2-phenyl-2H-pyrazolo[3,4-d]pyridazin-7-yl)piperidine-4-carboxamide], the concentration for half-maximal inhibition (IC50) was 41 nM at human TLR9, 4540 nM at human TLR8 (setting [2]) and 4850 nM at human TLR8 (setting [1]). Besides, at human TLR9, the “inhibits TLR9-dependent responses (in words)” value was “inhibit”.
`Cc1nnc(N2CCC(C(=O)NCCCN(C)C)CC2)c2nn(C(C)C)c(C)c12` [compound 27, N-(3-(dimethylamino)propyl)-1-(2-isopropyl-3,4-dimethyl-2H-pyrazolo[3,4-d]pyridazin-7-yl)piperidine-4-carboxamide]: the figures for the 50% inhibitory concentration (IC50) at human TLR9 and at human TLR8 (setting [1]) were over 10000 nM and at least 20000 nM, respectively.
For `CCN1CCCC1CNC(=O)C1CCN(c2nnc(C)c3c(C)n(-c4ccccc4)nc23)CC1` (stereo not shown) [33x, 1-(3,4-dimethyl-2-phenyl-2H-pyrazolo[3,4-d]pyridazin-7-yl)-N-((1-ethylpyrrolidin-2-yl)methyl)piperidine-4-carboxamide], the half-maximal inhibitory concentration (IC50) is 70 nM at human TLR9, over 10000 nM on human TLR8 (setting [2]) and over 10000 nM on human TLR8 (setting [1]).
Turning to `Cc1ccc(-n2cc3cnnc(N4CCC(C(=O)NC5CN(C)C5)CC4)c3n2)cc1` [compound 62, N-(1-methylazetidin-3-yl)-1-(2-(p-tolyl)-2H-pyrazolo[3,4-d]pyridazin-7-yl)piperidine-4-carboxamide], the figures for the IC50 at human TLR9 and on human TLR8 (setting [1]) were 21 nM and 3840 nM, respectively.
Take `Cc1ccc(-n2nc3c(N4CCC(C(=O)NCCNC(C)C)CC4)nnc(C)c3c2C)cc1` [compound 8, 1-(3,4-dimethyl-2-(p-tolyl)-2H-pyrazolo[3,4-d]pyridazin-7-yl)-N-(2-(isopropylamino)ethyl)piperidine-4-carboxamide]: the IC50 at human TLR9 was 308 nM; at human TLR8 (setting [2]), over 10000 nM; on human TLR8 (setting [1]), over 10000 nM.
Take `Cc1ccc(-n2nc3c(N4CCC(C(=O)NCCCN(C)C)CC4)nnc(C)c3c2-c2ccccc2)cc1` [compound 34, N-(3-(dimethylamino)propyl)-1-(4-methyl-3-phenyl-2-(p-tolyl)-2H-pyrazolo[3,4-d]pyridazin-7-yl)piperidine-4-carboxamide]: the values for the IC50 on human TLR9 and on human TLR8 (setting [1]) were 251 nM and at least 20000 nM, respectively.
In the case of `Cc1ccc(-n2nc3c(N4CCC(C(=O)NCCCCN(C)C)CC4)nnc(C)c3c2C)cc1` [compound 31, 1-(3,4-dimethyl-2-(p-tolyl)-2H-pyrazolo[3,4-d]pyridazin-7-yl)-N-(4-(dimethylamino)butyl)piperidine-4-carboxamide], the IC50 amounted to 86 nM at human TLR9 and 2680 nM on human TLR8 (setting [1]).
